{
  "source": "patent US7033829B2",
  "about": "“Method to inhibit cell growth using oligonucleotides” (Trustees of Boston University, priority 2000, dated 2006)",
  "key": {"Jurkat cells": {"system": "Jurkat cells", "assay": "TUNEL assay in Jurkat cells", "format": "cell-based, human", "settings": "40 μM; 72 hours", "description": "Cells were plated at a density of 180,000 cells/ml in RPMI 1640 medium supplemented with 3% FBS. Cells were treated with 40 μM of either of the oligonucleotides for 72 hours. Cells were then collected, washed and fixed for 30 minutes in 4% paraformaldehyde and then permeabilized with 0.1% Triton X-100 for 2 minutes. The TUNEL assay was carried out with components and instructions of the In Situ Cell Death Detection Kit using fluorescein-labeled dUTP from Boehringer Mannheim. TUNEL-positive cells were detected by FACS analysis and confocal microscopy. […] Uptake of the oligonucleotides was assessed in 5–10 μm sections with a Carl Zeiss LSM 510 confocal laser microscope. […] Fluorescence was measured on the FL-1 channel. […] Antibody Ab-6 (DO-1 clone, Oncogene Research Products, Cambridge, Mass.) detected p53; antibody KH95 (Santa Cruz Biotechnology, Inc., Santa Cruz, Calif.) detected E2F1; antibody Ab-4 (Oncogene Research products) detected p73. Phospho-p53 (serine 15) was detected using the #9284 polyclonal antibody and phospho-p95/Nbs1 (serine 343) was detected by a phospho-p95/Nbs1-specific polyclonal antibody, both antibodies from Cell Signaling Technology (Beverly, Mass.). p95/Nbs1 antibody (#NB-100-143, Novus Biologicals, Littleton, Colo.) and an actin antibody (I-19, Santa Cruz Biotechnology, Santa Cruz, Calif.) were also used. […]"}, "telomere 3′ overhang": {"system": "telomere 3′ overhang", "assay": "3′ overhang assay in fibroblasts", "format": "cell-based, human", "settings": "40 μM; up to 7 days"}, "[1]": {"system": "Primary newborn fibroblasts", "assay": "Protection of fibroblasts against H2O2", "format": "cell-based", "settings": "for cell yields higher compared to diluent pre-treated control: 10 μM 3 days, within 72 hours", "description": "Primary newborn fibroblasts were treated for 3 days with 10 μM pTpT or diluent as control and then treated with 5×10^−5 or 5×10^−4 M H2O2. Within 72 hours of H2O2 exposure, cell yields of pTpT pre-treated cultures were 45±1% and 139±5% higher, respectively, compared to diluent pre-treated control samples. 72 hours after exposure of the […] H2O2 dose, only 9.6±2.4% of the diluent pre-treated cells survived."}, "p53": {"target": "p53 (Homo sapiens, UniProt P04637)", "sequence (P04637 whole entry)": "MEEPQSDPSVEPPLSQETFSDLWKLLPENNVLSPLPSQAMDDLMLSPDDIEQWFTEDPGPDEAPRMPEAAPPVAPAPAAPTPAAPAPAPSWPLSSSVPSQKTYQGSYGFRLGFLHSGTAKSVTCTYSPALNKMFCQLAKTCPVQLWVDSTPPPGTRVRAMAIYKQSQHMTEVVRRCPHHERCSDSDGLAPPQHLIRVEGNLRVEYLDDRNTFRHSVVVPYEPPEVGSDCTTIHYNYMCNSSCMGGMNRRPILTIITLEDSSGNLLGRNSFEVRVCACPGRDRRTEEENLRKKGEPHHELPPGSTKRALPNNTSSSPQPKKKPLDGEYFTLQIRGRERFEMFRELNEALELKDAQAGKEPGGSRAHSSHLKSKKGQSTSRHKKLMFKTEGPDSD", "assay": "p53 assay using hGH reporter plasmid in keratinocytes", "format": "cell-based", "design": "expressed in transfected cells; vector from Dr. Bert Vogelstein", "settings": "100 μM; 24 hours", "description": "Transfection was performed in the presence of 100 μM pTpT (Midland Certified Reagent Company, Midland, Tex.) or an equal volume of diluent. At the same time, the PSV-β-galactosidase control vector (Promega, Madison, Wis.) was co-transfected to determine the transfection efficiency (Norton and Coffin, 1985). Four hours after transfection, the medium was removed and replaced with K-Stim medium with or without 100 μM pTpT. Twenty-four hours after transfection and pTpT treatment, 400 μl of the medium was harvested from each 35 mm culture dish, and 100 μl of ^125I-hGH antibody solution (Nichols Institute Diagnostics, San Juan Capistrano, Calif.) was added to detect secreted hGH as described below. The cells were harvested in a Reporter Lysis Buffer (Promega) using a protocol provided by the manufacturer, and 150 μl of this lysate was used for the β-galactosidase assay using a β-galactosidase assay kit (Promega). Samples from each of triplicate culture dishes were evaluated for hGH and β-galactosidase synthesis.\nTo confirm the activation of p53 by pTpT in a second assay, a reporter plasmid expressing the human growth hormone (hGH) gene under the influence of a p53 inducible promoter was employed. Activation of p53 increases its binding to the consensus sequence in the plasmid, leading to transcription of the hGH coding sequence and ultimately to secretion of hGH into the medium."}},
  "note": "Oligonucleotides are written 5' to 3', each unit as a sugar letter and its base; * is a phosphorothioate linkage, no mark a phosphodiester; rarer units and linkages stand in square brackets, end groups in braces. Plain capitals give the bases only. d = 2'-deoxy (DNA); {P} = phosphate",
  "data": [
    {"substance": "pGTTAGGGTTAG (DNA {P}-dGdTdTdAdGdGdGdTdTdAdG) [SEQ ID NO: 5]", "values": [
      {"measurement": "TUNEL fluorescence (FACS, confocal microscopy)", "setting": "Jurkat cells", "value": "an increase in fluorescence due to end-label incorporation"},
      {"measurement": "degradation of the telomere 3′ overhang", "setting": "telomere 3′ overhang", "value": "did not result in degradation of the telomere 3′ overhang"}
    ]},
    {"substance": "thymidine dinucleotide [pTpT]", "values": [
      {"measurement": "cell yields higher compared to diluent pre-treated control", "setting": "[1]; 5×10^−4 M H2O2", "value": "139±5", "unit": "%"},
      {"measurement": "cell yields higher compared to diluent pre-treated control", "setting": "[1]; 5×10^−5 M H2O2", "value": "45±1", "unit": "%"},
      {"measurement": "increase of cell survival", "setting": "[1]; 5×10^−4 M H2O2", "value": "2–9 fold"},
      {"measurement": "protection of cell survival", "setting": "[1]; low H2O2 dose", "value": "complete protection"},
      {"measurement": "increase in hGH secretion compared to diluent-treated cells", "setting": "p53", "value": "45%±25%"}
    ]}
  ]
}
